# Legend:
# [1] = target: T1, Serine/threonine-protein kinase tousled-like 1 (Homo sapiens) (UniProt Q9UKI8); assay: Inhibition of TLK1 Lys2 labeling site in human Huh-7 cell lysate at 1 uM by KiNativ Profiling analysis relative to control; assay type: subcellular
# T1 sequence (whole entry): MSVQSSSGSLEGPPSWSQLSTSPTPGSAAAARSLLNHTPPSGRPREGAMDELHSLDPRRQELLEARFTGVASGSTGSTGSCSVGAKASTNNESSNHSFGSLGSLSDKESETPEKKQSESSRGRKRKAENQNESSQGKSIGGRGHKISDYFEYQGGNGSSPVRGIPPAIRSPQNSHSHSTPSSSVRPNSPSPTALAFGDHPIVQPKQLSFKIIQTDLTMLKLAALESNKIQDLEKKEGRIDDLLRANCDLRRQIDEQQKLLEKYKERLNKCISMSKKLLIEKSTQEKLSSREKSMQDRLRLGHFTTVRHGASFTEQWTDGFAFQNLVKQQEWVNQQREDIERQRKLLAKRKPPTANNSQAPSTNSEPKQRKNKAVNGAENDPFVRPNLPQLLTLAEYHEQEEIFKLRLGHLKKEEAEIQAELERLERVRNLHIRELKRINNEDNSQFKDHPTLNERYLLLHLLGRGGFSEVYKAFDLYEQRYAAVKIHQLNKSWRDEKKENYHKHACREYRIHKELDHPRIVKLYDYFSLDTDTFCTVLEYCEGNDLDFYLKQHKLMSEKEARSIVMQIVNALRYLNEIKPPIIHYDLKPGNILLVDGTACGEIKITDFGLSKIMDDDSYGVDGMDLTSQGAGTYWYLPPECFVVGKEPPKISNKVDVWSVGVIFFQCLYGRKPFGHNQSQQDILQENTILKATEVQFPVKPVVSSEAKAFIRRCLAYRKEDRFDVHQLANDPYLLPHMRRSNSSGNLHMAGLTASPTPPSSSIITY
# [2] = target: Cyclin-dependent kinase 11B (Homo sapiens) (UniProt P21127); assay: Inhibition of CDK11 Lys2 labeling site in human Huh-7 cells at 1 uM by KiNativ Profiling analysis relative to control; assay type: cell-based
# Cyclin-dependent kinase 11B (Homo sapiens), sequence (P21127 whole entry): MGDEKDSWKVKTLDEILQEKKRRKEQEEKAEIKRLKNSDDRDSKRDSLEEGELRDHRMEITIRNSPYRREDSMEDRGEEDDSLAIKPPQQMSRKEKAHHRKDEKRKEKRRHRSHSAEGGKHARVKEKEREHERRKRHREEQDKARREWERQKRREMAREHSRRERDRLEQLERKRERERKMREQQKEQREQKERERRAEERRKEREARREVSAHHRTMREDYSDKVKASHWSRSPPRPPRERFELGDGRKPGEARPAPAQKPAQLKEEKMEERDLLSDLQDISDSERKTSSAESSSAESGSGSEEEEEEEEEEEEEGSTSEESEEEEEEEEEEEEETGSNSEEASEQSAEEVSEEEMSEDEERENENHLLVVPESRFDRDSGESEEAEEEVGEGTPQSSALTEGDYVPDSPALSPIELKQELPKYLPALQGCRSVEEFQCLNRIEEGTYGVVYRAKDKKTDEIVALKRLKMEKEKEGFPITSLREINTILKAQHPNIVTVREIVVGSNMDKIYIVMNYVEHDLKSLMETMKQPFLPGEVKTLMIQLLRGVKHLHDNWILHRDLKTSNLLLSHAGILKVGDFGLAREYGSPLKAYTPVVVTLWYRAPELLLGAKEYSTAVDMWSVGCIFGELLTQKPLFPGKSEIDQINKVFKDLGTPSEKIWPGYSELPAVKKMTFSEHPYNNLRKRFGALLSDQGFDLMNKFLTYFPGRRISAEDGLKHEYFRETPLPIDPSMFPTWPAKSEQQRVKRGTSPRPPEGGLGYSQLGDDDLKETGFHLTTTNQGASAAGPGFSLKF
# [3] = target: Epidermal growth factor receptor (Homo sapiens) (UniProt P00533); assay: Inhibition of EGFR Lys1 labeling site harbouring GLWIPEGEKVKIPVAIKELR in human Huh-7 cells at 1 uM by KiNativ Profiling analysis relative to control; assay type: cell-based
# Epidermal growth factor receptor (Homo sapiens), sequence (P00533 whole entry): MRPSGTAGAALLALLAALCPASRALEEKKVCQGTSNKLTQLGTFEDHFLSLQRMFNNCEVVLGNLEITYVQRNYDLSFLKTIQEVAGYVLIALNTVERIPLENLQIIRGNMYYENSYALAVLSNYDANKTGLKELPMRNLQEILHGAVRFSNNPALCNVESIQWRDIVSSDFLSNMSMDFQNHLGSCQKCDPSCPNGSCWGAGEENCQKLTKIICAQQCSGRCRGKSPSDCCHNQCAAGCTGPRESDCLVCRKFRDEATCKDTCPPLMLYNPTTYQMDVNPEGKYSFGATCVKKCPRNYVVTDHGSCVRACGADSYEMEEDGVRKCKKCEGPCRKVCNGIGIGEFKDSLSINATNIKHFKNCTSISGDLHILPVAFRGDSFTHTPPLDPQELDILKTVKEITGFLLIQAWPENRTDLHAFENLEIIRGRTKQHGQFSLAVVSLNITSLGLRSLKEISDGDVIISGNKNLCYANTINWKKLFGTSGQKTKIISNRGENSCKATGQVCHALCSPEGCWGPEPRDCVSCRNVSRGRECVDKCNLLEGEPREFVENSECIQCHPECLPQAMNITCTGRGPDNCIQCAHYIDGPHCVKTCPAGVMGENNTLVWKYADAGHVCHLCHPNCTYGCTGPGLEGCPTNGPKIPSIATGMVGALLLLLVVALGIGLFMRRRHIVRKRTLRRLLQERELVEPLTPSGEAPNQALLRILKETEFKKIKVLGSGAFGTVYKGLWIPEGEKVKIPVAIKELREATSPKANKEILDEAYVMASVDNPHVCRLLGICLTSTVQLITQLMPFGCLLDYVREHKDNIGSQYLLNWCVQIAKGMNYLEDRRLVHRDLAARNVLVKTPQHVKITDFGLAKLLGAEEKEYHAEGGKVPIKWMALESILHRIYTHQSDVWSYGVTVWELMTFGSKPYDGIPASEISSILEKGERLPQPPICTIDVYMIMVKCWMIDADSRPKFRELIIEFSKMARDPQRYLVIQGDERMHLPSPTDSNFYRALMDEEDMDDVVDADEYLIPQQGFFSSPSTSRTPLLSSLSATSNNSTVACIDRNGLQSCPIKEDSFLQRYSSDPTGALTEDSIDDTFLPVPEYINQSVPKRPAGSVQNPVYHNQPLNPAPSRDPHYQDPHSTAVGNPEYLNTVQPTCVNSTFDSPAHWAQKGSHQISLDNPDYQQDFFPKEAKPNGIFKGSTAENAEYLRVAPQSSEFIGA
# [4] = target: T2, Serine/threonine-protein kinase STK11 (Homo sapiens) (UniProt Q15831); assay: Inhibition of LKB1 Lys2 labeling site in human Huh-7 cells at 1 uM by KiNativ Profiling analysis relative to control; assay type: cell-based
# T2 sequence (whole entry): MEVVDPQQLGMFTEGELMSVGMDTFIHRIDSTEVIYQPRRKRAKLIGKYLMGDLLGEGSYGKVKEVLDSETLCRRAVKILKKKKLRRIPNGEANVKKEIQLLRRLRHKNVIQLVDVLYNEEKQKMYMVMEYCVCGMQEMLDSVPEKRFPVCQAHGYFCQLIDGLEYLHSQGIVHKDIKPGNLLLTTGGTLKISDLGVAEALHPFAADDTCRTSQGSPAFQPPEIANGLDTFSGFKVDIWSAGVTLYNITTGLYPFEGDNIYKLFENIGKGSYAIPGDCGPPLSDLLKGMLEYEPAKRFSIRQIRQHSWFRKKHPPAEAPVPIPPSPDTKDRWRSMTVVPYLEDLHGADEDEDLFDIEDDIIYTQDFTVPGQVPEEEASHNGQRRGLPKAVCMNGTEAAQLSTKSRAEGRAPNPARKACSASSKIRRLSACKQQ
# [5] = target: DNA-PK/Ku70/Ku85 (Homo sapiens) (UniProt P78527+P12956+P13010); assay: Inhibition of DNAPK ATP labeling site harbouring KGGSWIQEINVAEKNWYPR in human A-375 cells at 5 uM by KiNativ Profiling analysis relative to control; assay type: cell-based
# [6] = target: Mitogen-activated protein kinase kinase kinase kinase 4 (Homo sapiens, UniProt O95819); assay: Inhibition of ZC1/HGK K1 labeling site harbouring TGQLAAIKVMDVTEDEEEEIKLEINMLKK in human Huh-7 cells at 10 uM by KiNativ Profiling analysis relative to control; assay type: cell-based
# Mitogen-activated protein kinase kinase kinase kinase 4, sequence (O95819 2-1239 limits assumed): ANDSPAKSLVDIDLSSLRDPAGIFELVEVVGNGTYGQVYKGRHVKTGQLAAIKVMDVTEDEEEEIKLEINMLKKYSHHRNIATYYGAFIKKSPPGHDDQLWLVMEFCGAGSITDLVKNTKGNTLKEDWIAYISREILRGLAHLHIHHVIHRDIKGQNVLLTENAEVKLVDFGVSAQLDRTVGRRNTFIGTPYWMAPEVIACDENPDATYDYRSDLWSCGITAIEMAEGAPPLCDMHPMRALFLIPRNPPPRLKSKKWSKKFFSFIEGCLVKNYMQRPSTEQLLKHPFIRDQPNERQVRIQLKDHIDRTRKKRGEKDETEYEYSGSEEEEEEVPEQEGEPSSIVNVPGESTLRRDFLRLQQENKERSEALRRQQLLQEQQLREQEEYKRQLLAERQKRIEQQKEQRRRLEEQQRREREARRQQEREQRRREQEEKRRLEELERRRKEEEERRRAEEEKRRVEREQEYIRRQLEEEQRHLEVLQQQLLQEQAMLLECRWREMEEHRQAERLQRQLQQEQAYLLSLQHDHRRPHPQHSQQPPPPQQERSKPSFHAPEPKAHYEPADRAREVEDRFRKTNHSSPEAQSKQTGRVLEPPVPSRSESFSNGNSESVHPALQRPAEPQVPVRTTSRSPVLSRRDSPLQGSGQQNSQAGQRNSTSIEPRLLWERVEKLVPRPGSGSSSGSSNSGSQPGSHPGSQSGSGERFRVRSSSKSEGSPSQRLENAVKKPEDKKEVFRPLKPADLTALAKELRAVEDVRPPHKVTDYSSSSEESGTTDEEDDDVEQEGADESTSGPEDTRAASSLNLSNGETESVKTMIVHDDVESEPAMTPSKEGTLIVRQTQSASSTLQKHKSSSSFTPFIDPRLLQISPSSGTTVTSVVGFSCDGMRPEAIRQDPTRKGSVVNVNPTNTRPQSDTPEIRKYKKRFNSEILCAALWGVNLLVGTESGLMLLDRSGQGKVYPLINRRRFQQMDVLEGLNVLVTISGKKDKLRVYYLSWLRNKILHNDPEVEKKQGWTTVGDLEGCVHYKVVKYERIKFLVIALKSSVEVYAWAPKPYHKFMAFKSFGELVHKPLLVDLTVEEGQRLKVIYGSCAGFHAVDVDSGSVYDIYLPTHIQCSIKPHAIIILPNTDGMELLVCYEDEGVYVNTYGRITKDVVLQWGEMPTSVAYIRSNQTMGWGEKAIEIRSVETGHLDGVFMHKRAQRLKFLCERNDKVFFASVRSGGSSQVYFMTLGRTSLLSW
# [7] = target: PKC alpha and beta-2 (Homo sapiens) (UniProt P17252+P05771); assay: Inhibition of PKCalpha/beta K2 labeling site in human Huh-7 cells at 10 uM by KiNativ Profiling analysis relative to control; assay type: cell-based
# [8] = target: Proto-oncogene tyrosine-protein kinase receptor Ret (Homo sapiens) (UniProt P07949); assay: Inhibition of RET (unknown origin) at 10 uM by Ambit Kinomescan binding assay relative to control; values are per cent of control
# [9] = target: Glycogen synthase kinase-3 alpha (Homo sapiens) (UniProt P49840); assay: Inhibition of GSK3A Lys2 labeling site in human A-375 cells at 0.5 uM by KiNativ Profiling analysis relative to control; assay type: cell-based
# Glycogen synthase kinase-3 alpha (Homo sapiens), sequence (P49840 2-483 limits assumed): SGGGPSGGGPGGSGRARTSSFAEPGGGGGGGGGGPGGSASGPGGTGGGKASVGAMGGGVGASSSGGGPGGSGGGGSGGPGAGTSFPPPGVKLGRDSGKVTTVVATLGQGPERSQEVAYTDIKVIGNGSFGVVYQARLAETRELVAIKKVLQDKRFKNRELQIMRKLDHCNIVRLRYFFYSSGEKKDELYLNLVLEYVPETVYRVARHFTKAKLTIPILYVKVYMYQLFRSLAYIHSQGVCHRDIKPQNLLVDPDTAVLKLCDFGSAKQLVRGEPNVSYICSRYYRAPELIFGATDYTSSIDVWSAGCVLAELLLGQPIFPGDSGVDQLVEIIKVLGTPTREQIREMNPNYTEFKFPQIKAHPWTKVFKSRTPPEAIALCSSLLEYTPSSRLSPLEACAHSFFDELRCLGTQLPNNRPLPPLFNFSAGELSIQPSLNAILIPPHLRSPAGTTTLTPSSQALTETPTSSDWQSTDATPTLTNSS
# [10] = target: Serine/threonine-protein kinase B-raf (Homo sapiens, UniProt P15056); assay: Inhibition of BRAF Lys2 labeling site in human A-375 cells at 0.05 uM by KiNativ Profiling analysis relative to control; assay type: cell-based
# Serine/threonine-protein kinase B-raf, sequence (P15056 whole entry): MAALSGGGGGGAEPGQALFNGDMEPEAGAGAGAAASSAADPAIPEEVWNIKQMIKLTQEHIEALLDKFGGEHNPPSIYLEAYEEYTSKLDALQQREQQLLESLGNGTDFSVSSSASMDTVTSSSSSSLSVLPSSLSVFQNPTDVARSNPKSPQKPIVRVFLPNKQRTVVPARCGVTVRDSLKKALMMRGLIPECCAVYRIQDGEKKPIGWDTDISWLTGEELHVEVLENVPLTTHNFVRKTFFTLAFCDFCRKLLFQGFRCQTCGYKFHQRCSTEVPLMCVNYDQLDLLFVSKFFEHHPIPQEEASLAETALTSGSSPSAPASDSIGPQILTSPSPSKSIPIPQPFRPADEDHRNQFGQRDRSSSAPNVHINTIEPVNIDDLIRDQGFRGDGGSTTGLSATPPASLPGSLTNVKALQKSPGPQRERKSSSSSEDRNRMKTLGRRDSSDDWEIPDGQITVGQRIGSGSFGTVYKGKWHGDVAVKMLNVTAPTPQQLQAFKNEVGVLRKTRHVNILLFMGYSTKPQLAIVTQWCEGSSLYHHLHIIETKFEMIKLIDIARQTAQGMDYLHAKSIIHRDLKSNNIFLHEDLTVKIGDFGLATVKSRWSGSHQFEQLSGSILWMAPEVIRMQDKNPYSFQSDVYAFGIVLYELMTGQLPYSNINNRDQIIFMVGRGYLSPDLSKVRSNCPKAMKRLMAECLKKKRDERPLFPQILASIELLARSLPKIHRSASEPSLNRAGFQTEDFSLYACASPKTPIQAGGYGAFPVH
# [11] = target: T3, Serine/threonine-protein kinase NLK (Homo sapiens) (UniProt Q9UBE8); assay: Inhibition of NLK (unknown origin) at 1 uM by Ambit Kinomescan binding assay relative to control; values are per cent of control
# T3 sequence (whole entry): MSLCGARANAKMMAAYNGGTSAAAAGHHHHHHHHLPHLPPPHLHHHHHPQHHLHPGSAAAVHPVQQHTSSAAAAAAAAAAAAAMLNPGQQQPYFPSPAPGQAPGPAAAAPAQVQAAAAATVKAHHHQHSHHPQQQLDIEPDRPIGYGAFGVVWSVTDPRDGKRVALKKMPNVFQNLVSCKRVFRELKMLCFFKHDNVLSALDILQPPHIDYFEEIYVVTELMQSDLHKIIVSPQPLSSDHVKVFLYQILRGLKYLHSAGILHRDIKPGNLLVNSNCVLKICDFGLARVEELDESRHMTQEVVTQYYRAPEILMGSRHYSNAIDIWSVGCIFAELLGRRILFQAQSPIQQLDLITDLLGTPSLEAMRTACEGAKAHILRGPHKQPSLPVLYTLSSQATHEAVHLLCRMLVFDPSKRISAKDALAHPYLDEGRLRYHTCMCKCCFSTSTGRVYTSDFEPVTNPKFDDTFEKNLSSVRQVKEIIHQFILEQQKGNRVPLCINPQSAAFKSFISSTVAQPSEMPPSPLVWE
# [12] = target: Serine/threonine-protein kinase Nek6 (Homo sapiens) (UniProt Q9HC98); assay: Inhibition of NEK6 (unknown origin) at 1 uM by Ambit Kinomescan binding assay relative to control; values are per cent of control
# Serine/threonine-protein kinase Nek6 (Homo sapiens), sequence (Q9HC98 whole entry): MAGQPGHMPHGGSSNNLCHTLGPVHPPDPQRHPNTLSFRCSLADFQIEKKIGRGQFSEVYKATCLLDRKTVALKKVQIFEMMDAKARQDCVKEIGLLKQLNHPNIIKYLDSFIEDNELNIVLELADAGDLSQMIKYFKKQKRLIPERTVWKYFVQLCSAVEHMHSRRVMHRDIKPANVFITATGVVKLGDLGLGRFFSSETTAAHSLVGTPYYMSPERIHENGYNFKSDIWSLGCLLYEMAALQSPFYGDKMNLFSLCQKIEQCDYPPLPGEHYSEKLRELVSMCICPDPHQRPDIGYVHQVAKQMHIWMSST
# [13] = target: Glycogen synthase kinase-3 alpha (Homo sapiens) (UniProt P49840); assay: Inhibition of GSK3A (unknown origin) at 1 uM by Ambit Kinomescan binding assay relative to control; values are per cent of control
smiles,measurement,setting,value
CNc1cc(Oc2cc(C(=O)Nc3cc(N4CCN(C)CC4)cc(C(F)(F)F)c3)ccc2C)ncn1,inhibition,[1],1%
same,inhibition,[2],25.8%
same,inhibition,[3],-5.2%
same,inhibition,[4],15.1%
CCN1CCN(Cc2ccc(NC(=O)c3ccc(C)c(Oc4ccnc5[nH]ccc45)c3)cc2C(F)(F)F)CC1,inhibition,[5],7.9%
same,inhibition,[6],75.4%
same,inhibition,[7],1.3%
same,residual activity,[8],0%
CCN1CCN(Cc2ccc(NC(=O)c3ccc(C)c(/C=C/c4cnc5[nH]ccc5c4OC)c3)cc2C(F)(F)F)CC1,inhibition,[9],11.4%
same,inhibition,[10],29.6%
same,residual activity,[11],18%
same,residual activity,[12],100%
same,residual activity,[13],100%

# From ChEMBL document CHEMBL5696442, “Discovery of type II inhibitors of TGFβ-activated kinase 1 (TAK1) and mitogen-activated protein kinase kinase kinase kinase 2 (MAP4K2)” (J Med Chem, 2015)
